From ChEMBL document CHEMBL1141324, “Saponins from the roots of Nylandtia spinosa” (J Nat Prod, 2007)
Converted amounts (≈) assume the structure as drawn.

How the values were obtained:
HT-29 = assay: Cytotoxicity against human HT29 cells by MTT assay; format: functional, cell-based
HCT-116 = assay: Cytotoxicity against human HCT116 cells by MTT assay; format: functional, cell-based

| SMILES | IC50 (HT-29) | IC50 (HCT-116) |
| --- | --- | --- |
| C[C@@H]1O[C@H](OC(=O)[C@]23CCC(C)(C)CC2C2=CCC4[C@@]5(C)C[C@H](O)[C@H](O[C@@H]6O[C@H](CO)[C@@H](O)[C@H](O)[C@H]6O)[C@@](C)(C(=O)O)[C@@H]5CC[C@@]4(C)[C@]2(CO)CC3)[C@@H](O[C@H]2O[C@H](C)[C@@H](O[C@@H]3OC[C@@H](O[C@@H]4OC[C@](O)(CO)[C@H]4O)[C@H](O)[C@H]3O[C@H]3O[C@@H](CO)[C@@H](O)[C@@H](O)[C@@H]3O)[C@H](O)[C@@H]2O)[C@H](O)[C@@H]1O (stereo not given in full) | > 5 µg/mL | > 5 µg/mL |
| C[C@@H]1O[C@H](OC(=O)[C@]23CCC(C)(C)CC2C2=CCC4[C@@]5(C)C[C@H](O)[C@H](O[C@@H]6O[C@H](CO)[C@@H](O)[C@H](O)[C@H]6O)[C@@](C)(C(=O)O)[C@@H]5CC[C@@]4(C)[C@]2(CO)CC3)[C@@H](O[C@H]2O[C@H](C)[C@@H](O[C@@H]3OC[C@@H](O[C@@H]4O[C@H](CO)[C@H](O)[C@H](O)[C@H]4O)[C@H](O[C@@H]4OC[C@H](O)[C@H](O)[C@H]4O)[C@H]3O)[C@H](O)[C@@H]2O)[C@H](O)[C@@H]1O (stereo not given in full) | > 5 µg/mL | > 5 µg/mL |
| C[C@@H]1O[C@H](OC(=O)[C@]23CCC(C)(C)CC2C2=CCC4[C@@]5(C)C[C@H](O)[C@H](O[C@@H]6O[C@H](CO)[C@@H](O)[C@H](O)[C@H]6O)[C@@](C)(C(=O)O)[C@@H]5CC[C@@]4(C)[C@]2(CO)CC3)[C@@H](O[C@H]2O[C@H](C)[C@@H](O[C@@H]3OC[C@@H](O)[C@H](O[C@@H]4OC[C@](O)(CO)[C@H]4O)[C@H]3O)[C@H](O)[C@@H]2O)[C@H](O)[C@@H]1O (stereo not given in full) | > 5 µg/mL | > 5 µg/mL |
| C[C@@H]1O[C@H](OC(=O)[C@]23CCC(C)(C)CC2C2=CCC4[C@@]5(C)C[C@H](O)[C@H](O[C@@H]6O[C@H](CO)[C@@H](O)[C@H](O)[C@H]6O)[C@@](C)(C(=O)O)[C@@H]5CC[C@@]4(C)[C@]2(CO)CC3)[C@@H](O[C@H]2O[C@H](C)[C@@H](O[C@@H]3OC[C@@H](O[C@@H]4O[C@H](CO)[C@H](O)[C@H](O)[C@H]4O)[C@H](O[C@@H]4OC[C@H](O)[C@H](O)[C@H]4O)[C@H]3O)[C@H](O[C@@H]3OC[C@](O)(CO)[C@H]3O)[C@@H]2O)[C@H](O)[C@@H]1O (stereo not given in full) | > 5 µg/mL | > 5 µg/mL |
| CC(=O)O[C@H]1C(=O)[C@@]2(C)[C@H]([C@H](OC(=O)c3ccccc3)[C@]3(O)C[C@H](OC(=O)[C@H](O)[C@@H](NC(=O)c4ccccc4)c4ccccc4)C(C)=C1C3(C)C)[C@]1(OC(C)=O)CO[C@@H]1C[C@@H]2O [PACLITAXEL] | 0.0053 µg/mL (≈ 0.00621 µM) | 0.008 µg/mL (≈ 0.00937 µM) |
